Laboratory results taken from article PMC2834880 (International journal of biological macromolecules, 2010).
Entries after “also recorded” stand apart in the source; their conditions may differ. Where two headings read alike, the source gives them in different places. Where no end group is shown, it is not given here.

Tests used:
[1] = target: purified F1 and membrane bound F1Fo E. coli ATP synthase (Escherichia coli, UniProt P0ABB4); test: biochemical
[2] = system: wild-type E. coli strain pBWU13.4/DK; assay type: cell-based, Escherichia coli
[3] = system: E. coli strain pBWU13.4/DK8; assay type: cell-based, Escherichia coli
[4] = succinate plates, limiting glucose, or LB media

Sequence of purified F1 and membrane bound F1Fo E. coli ATP synthase (P0ABB4 whole entry, looked up): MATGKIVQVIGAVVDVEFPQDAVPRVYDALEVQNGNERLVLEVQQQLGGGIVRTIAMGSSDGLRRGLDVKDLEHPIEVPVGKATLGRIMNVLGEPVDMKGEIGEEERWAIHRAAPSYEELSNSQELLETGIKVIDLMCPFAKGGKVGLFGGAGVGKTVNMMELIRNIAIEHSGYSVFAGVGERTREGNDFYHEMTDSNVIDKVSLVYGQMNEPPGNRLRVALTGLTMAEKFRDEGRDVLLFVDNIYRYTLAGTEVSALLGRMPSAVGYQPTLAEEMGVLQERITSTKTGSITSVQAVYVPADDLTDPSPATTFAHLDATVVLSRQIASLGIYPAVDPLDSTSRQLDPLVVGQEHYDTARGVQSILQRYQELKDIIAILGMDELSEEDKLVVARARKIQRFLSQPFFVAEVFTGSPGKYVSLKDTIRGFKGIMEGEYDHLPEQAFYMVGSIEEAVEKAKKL

`CC[C@H](C)[C@H](NC(=O)CN)C(=O)NCC(=O)N[C@@H](C)C(=O)N[C@H](C(=O)N[C@@H](CC(C)C)C(=O)N[C@@H](CCCCN)C(=O)N[C@H](C(=O)N[C@@H](CC(C)C)C(=O)N[C@H](C(=O)N[C@H](C(=O)NCC(=O)N[C@@H](CC(C)C)C(=O)N1CCC[C@H]1C(=O)N[C@@H](C)C(=O)N[C@@H](CC(C)C)C(=O)N[C@H](C(=O)N[C@@H](CO)C(=O)N[C@@H](Cc1c[nH]c2ccccc12)C(=O)N[C@H](C(=O)N[C@@H](CCCCN)C(=O)N[C@@H](CCCNC(=N)N)C(=O)N[C@@H](CCCCN)C(=O)N[C@@H](CCCNC(=N)N)C(=O)N[C@@H](CCC(N)=O)C(=O)N[C@@H](CCC(N)=O)C(N)=O)[C@@H](C)CC)[C@@H](C)CC)[C@@H](C)O)[C@@H](C)O)C(C)C)C(C)C` [Melittin-NH2, reference compound] gave an IC50 [1] of roughly 4.68 µM.

AIGSILGALAKGLPTLISWIKNR [MRP] was tested, and the IC50 [1] was roughly 4.77 µM.

For Ascaphin-8, the “growth of E. coli in presence of peptide” value [2] was “no growth; also recorded: abrogated growth”, the “ATPase inhibition (%)” value [1] was 59% and the “residual ATPase activity at maximal inhibition” value [1] was ~ 41%.

In the case of “Aurein 2.2: amphibian antimicrobial peptide, Litoria aurea, 16 residues (GLFDIVKKVVGALGSL-NH2)”, the “Growth yield on limiting glucose (%)” value [3] is reported as 12%, the “growth of E. coli in presence of peptide” value [2, 4] is reported as “no growth; also recorded: abrogated growth” and the “more inhibition of ATPase than aurein 2.3” value ([1]; Leu-13 (aurein 2.2) instead of Ile-13 (aurein 2.3)) is reported as ~ 40%.

In the case of “Aurein 2.3: amphibian antimicrobial peptide, Litoria aurea, 16 residues (GLFDIVKKVVGAIGSL-NH2)”, the “Growth yield on limiting glucose (%)” value [3] is reported as 24% and the “growth of E. coli in presence of peptide” value [2, 4] is reported as “no growth; also recorded: abrogated growth”.

For “Caerin 1.8: amphibian antimicrobial peptide, Litoria chloris, 24 residues (GLFKVLGSVAKHLLPHVVPVIAEK)”, the “Growth yield on limiting glucose (%)” value [3] was 99% and the “growth of E. coli in presence of peptide” value ([2]; succinate plates, limiting glucose, or LB media, listed as carein 1.8) was “did not affect growth”.

For Caerin 1.9, the “ATPase inhibition (%)” value [1] was 52% and the “maximal inhibition of ATPase activity” value [1] was ~ 52%.

With Citropin 1.1 the “growth of E. coli in presence of peptide” value [2] was “no growth; also recorded: abrogated growth”, the “ATPase inhibition (%)” value [1] was 57% and the “residual ATPase activity at maximal inhibition” value [1] was ~ 43%.

With Dermaseptin the “growth of E. coli in presence of peptide” value [2] was “no growth; also recorded: abrogated growth”, the “ATPase inhibition (%)” value [1] was 26% and the “residual ATPase activity at maximal inhibition” value [1] was ~ 74%.

In the case of Magainin II, the “growth of E. coli in presence of peptide” value [2] is reported as “did not affect growth”, the “ATPase inhibition (%)” value [1] is reported as 20% and the “maximal inhibition of ATPase activity” value [1] is reported as ~ 20%.

In the case of “XT-7: amphibian antimicrobial peptide, Xenopus tropicalis, 18 residues (GLLGPLLKIAAKVGSNLL)”, the “Growth yield on limiting glucose (%)” value [3] is reported as 89% and the “growth of E. coli in presence of peptide” value [2, 4] is reported as “did not affect growth”.
